Tests used:
Experiment in all cases: viability relative to DMSO control (fraction); higher = less drug effect (more viable cells)
Conditions in all cases: 48 h
[1] = test system: primary MCL patient cells (S053)
Summary of the method: (§1)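 Using 384-well plates with compounds already plated at five concentrations, one well per concentration, 4 × 10^4 primary mononuclear tumour cells were added per well. Cells were Ficoll-isolated from blood or bone marrow or came from processed lymph node, fresh or cryopreserved. They were kept for 48 h at 37 °C and 5% CO2 in RPMI-1640 supplemented with penicillin/streptomycin, L-glutamine and human serum, and viability was read as CellTiter-Glo luminescence relative to the median of 16 inner DMSO wells.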

[2] = test system: primary AML patient cells (S055)
Summary of the method: as §1

[3] = test system: primary AML patient cells (S037)
Summary of the method: as §1

[4] = test system: primary BL patient cells (S005)
Summary of the method: as §1

[5] = test system: primary DLBCL patient cells (S082)
Summary of the method: as §1

[6] = test system: primary AML patient cells (S002)
Summary of the method: as §1

[7] = test system: primary CLL patient cells (S043)
Summary of the method: as §1

[8] = test system: primary AML patient cells (S025)
Summary of the method: as §1

[9] = test system: primary AML patient cells (S091)
Summary of the method: as §1

[10] = test system: primary AML patient cells (S060)
Summary of the method: as §1

[11] = test system: primary B-PLL patient cells (S016)
Summary of the method: as §1

[12] = test system: primary AML patient cells (S089)
Summary of the method: as §1

[13] = test system: primary MCL patient cells (S068)
Summary of the method: as §1

[14] = test system: primary AML patient cells (S009)
Summary of the method: as §1

[15] = test system: primary AML patient cells (S021)
Summary of the method: as §1

[16] = test system: primary AML patient cells (S071)
Summary of the method: as §1

[17] = test system: primary AML patient cells (S017)
Summary of the method: as §1

[18] = test system: primary T-PLL patient cells (S008)
Summary of the method: as §1

[19] = test system: primary AML patient cells (S081)
Summary of the method: as §1

[20] = test system: primary AML patient cells (S072)
Summary of the method: as §1

For `O=C1c2c(O)ccc(O)c2C(=O)c2c(NCCNCCO)ccc(NCCNCCO)c21` [Mitoxantrone], the viability ([1]; 0.008 µM) was 0.452, the viability ([1]; 0.04 µM) was 0.326 and the viability ([1]; 0.2 µM) was 0.363. For the same compound, the viability ([1]; 1 µM) was 0.236, the viability ([1]; 5 µM) was 0.169 and the viability ([2]; 0.008 µM) was 0.978. It also gave a viability ([2]; 0.04 µM) of 0.869, a viability ([2]; 0.2 µM) of 0.821 and a viability ([2]; 1 µM) of 0.729. It also gave a viability ([2]; 5 µM) of 0.234, a viability ([3]; 0.008 µM) of 0.843 and a viability ([3]; 0.04 µM) of 0.581. For the same compound, the viability ([3]; 0.2 µM) was 0.447, the viability ([3]; 1 µM) was 0.345 and the viability ([3]; 5 µM) was 0.211. For the same compound, the viability ([4]; 0.008 µM) was 0.963, the viability ([4]; 0.04 µM) was 1.55 and the viability ([4]; 0.2 µM) was 0.853. For the same compound, the viability ([4]; 1 µM) was 0.649, the viability ([4]; 5 µM) was 0.742 and the viability ([5]; 0.008 µM) was 0.886. It also gave a viability ([5]; 0.04 µM) of 0.691, a viability ([5]; 0.2 µM) of 0.541 and a viability ([5]; 1 µM) of 0.538. For the same compound, the viability ([5]; 5 µM) was 0.0152, the viability ([6]; 0.008 µM) was 0.744 and the viability ([6]; 0.04 µM) was 0.443. It also gave a viability ([6]; 0.2 µM) of 0.332, a viability ([6]; 1 µM) of 0.334 and a viability ([6]; 5 µM) of 0.22. For the same compound, the viability ([7]; 0.008 µM) was 0.739, the viability ([7]; 0.04 µM) was 0.849 and the viability ([7]; 0.2 µM) was 0.488. The viability ([7]; 1 µM) was 0.0542, the viability ([7]; 5 µM) was 0.0236 and the viability ([8]; 0.008 µM) was 0.539. It also gave a viability ([8]; 0.04 µM) of 0.399, a viability ([8]; 0.2 µM) of 0.533 and a viability ([8]; 1 µM) of 0.0658. It also gave a viability ([8]; 5 µM) of 0.0287, a viability ([9]; 0.008 µM) of 0.494 and a viability ([9]; 0.04 µM) of 0.563. The viability ([9]; 0.2 µM) was 0.46, the viability ([9]; 1 µM) was 0.118 and the viability ([9]; 5 µM) was 0.0676. It also gave a viability ([10]; 0.008 µM) of 0.974, a viability ([10]; 0.04 µM) of 0.963 and a viability ([10]; 0.2 µM) of 1.07. For the same compound, the viability ([10]; 1 µM) was 0.332, the viability ([10]; 5 µM) was 0.016 and the viability ([11]; 0.008 µM) was 0.278. The viability ([11]; 0.04 µM) was 0.0753, the viability ([11]; 0.2 µM) was 0.0754 and the viability ([11]; 1 µM) was 0.0236. For the same compound, the viability ([11]; 5 µM) was 0.014, the viability ([12]; 0.008 µM) was 0.339 and the viability ([12]; 0.04 µM) was 0.966. For the same compound, the viability ([12]; 0.2 µM) was 0.0966, the viability ([12]; 1 µM) was 0.0273 and the viability ([12]; 5 µM) was 0.0313. It also gave a viability ([13]; 0.008 µM) of 0.814, a viability ([13]; 0.04 µM) of 0.596 and a viability ([13]; 0.2 µM) of 0.434. For the same compound, the viability ([13]; 1 µM) was 0.0583, the viability ([13]; 5 µM) was 0.0225 and the viability ([14]; 0.008 µM) was 0.788. For the same compound, the viability ([14]; 0.04 µM) was 0.651, the viability ([14]; 0.2 µM) was 0.517 and the viability ([14]; 1 µM) was 0.156. It also gave a viability ([14]; 5 µM) of 0.0504, a viability ([15]; 0.008 µM) of 0.66 and a viability ([15]; 0.04 µM) of 0.327. For the same compound, the viability ([15]; 0.2 µM) was 0.265, the viability ([15]; 1 µM) was 0.212 and the viability ([15]; 5 µM) was 0.106. The viability ([16]; 0.008 µM) was 0.139, the viability ([16]; 0.04 µM) was 0.125 and the viability ([16]; 0.2 µM) was 0.124. The viability ([16]; 1 µM) was 0.102, the viability ([16]; 5 µM) was 0.0662 and the viability ([17]; 0.008 µM) was 0.952. It also gave a viability ([17]; 0.04 µM) of 0.811, a viability ([17]; 0.2 µM) of 0.608 and a viability ([17]; 1 µM) of 0.126. The viability ([17]; 5 µM) was 0.0293, the viability ([18]; 0.008 µM) was 1.02 and the viability ([18]; 0.04 µM) was 0.961. For the same compound, the viability ([18]; 0.2 µM) was 0.502, the viability ([18]; 1 µM) was 0.0553 and the viability ([18]; 5 µM) was 0.0424. It also gave a viability ([19]; 0.008 µM) of 0.995, a viability ([19]; 0.04 µM) of 1.01 and a viability ([19]; 0.2 µM) of 1.09. The viability ([19]; 1 µM) was 0.167, the viability ([19]; 5 µM) was 0.0158 and the viability ([20]; 0.008 µM) was 0.839. The viability ([20]; 0.04 µM) was 0.715, the viability ([20]; 0.2 µM) was 0.661 and the viability ([20]; 1 µM) was 0.152. It also gave a viability ([20]; 5 µM) of 0.0445.

For `CC(C)(C)C[C@@H]1N[C@@H](C(=O)N[C@H]2CC[C@H](O)CC2)[C@H](c2cccc(Cl)c2F)[C@]12C(=O)Nc1cc(Cl)ccc12` [MI-773], the viability ([1]; 0.008 µM) was 1.11, the viability ([1]; 0.04 µM) was 0.915 and the viability ([1]; 0.2 µM) was 0.755. For the same compound, the viability ([1]; 1 µM) was 0.424, the viability ([1]; 5 µM) was 0.347 and the viability ([2]; 0.008 µM) was 1.01. The viability ([2]; 0.04 µM) was 1.01, the viability ([2]; 0.2 µM) was 0.997 and the viability ([2]; 1 µM) was 0.919. It also gave a viability ([2]; 5 µM) of 0.409, a viability ([3]; 0.008 µM) of 1.04 and a viability ([3]; 0.04 µM) of 1.01. The viability ([3]; 0.2 µM) was 1.01, the viability ([3]; 1 µM) was 0.742 and the viability ([3]; 5 µM) was 0.453. The viability ([4]; 0.008 µM) was 0.915, the viability ([4]; 0.04 µM) was 0.744 and the viability ([4]; 0.2 µM) was 0.789. The viability ([4]; 1 µM) was 0.897, the viability ([4]; 5 µM) was 0.903 and the viability ([5]; 0.008 µM) was 1.07. The viability ([5]; 0.04 µM) was 0.971, the viability ([5]; 0.2 µM) was 1.14 and the viability ([5]; 1 µM) was 0.98. For the same compound, the viability ([5]; 5 µM) was 1.03, the viability ([6]; 0.008 µM) was 0.994 and the viability ([6]; 0.04 µM) was 0.926. The viability ([6]; 0.2 µM) was 0.688, the viability ([6]; 1 µM) was 0.413 and the viability ([6]; 5 µM) was 0.253. It also gave a viability ([7]; 0.008 µM) of 1.05, a viability ([7]; 0.04 µM) of 0.949 and a viability ([7]; 0.2 µM) of 1. For the same compound, the viability ([7]; 1 µM) was 0.879, the viability ([7]; 5 µM) was 0.441 and the viability ([8]; 0.008 µM) was 1.12. The viability ([8]; 0.04 µM) was 0.901, the viability ([8]; 0.2 µM) was 0.818 and the viability ([8]; 1 µM) was 0.421. It also gave a viability ([8]; 5 µM) of 0.202, a viability ([9]; 0.008 µM) of 0.979 and a viability ([9]; 0.04 µM) of 0.781. For the same compound, the viability ([9]; 0.2 µM) was 0.587, the viability ([9]; 1 µM) was 0.428 and the viability ([9]; 5 µM) was 0.321. The viability ([10]; 0.008 µM) was 1.06, the viability ([10]; 0.04 µM) was 0.997 and the viability ([10]; 0.2 µM) was 1.09. The viability ([10]; 1 µM) was 0.99, the viability ([10]; 5 µM) was 1.09 and the viability ([11]; 0.008 µM) was 0.954. It also gave a viability ([11]; 0.04 µM) of 0.858, a viability ([11]; 0.2 µM) of 0.771 and a viability ([11]; 1 µM) of 0.568. For the same compound, the viability ([11]; 5 µM) was 0.0958, the viability ([12]; 0.008 µM) was 0.993 and the viability ([12]; 0.04 µM) was 0.973. It also gave a viability ([12]; 0.2 µM) of 0.938, a viability ([12]; 1 µM) of 0.842 and a viability ([12]; 5 µM) of 0.493. It also gave a viability ([13]; 0.008 µM) of 1.08, a viability ([13]; 0.04 µM) of 0.944 and a viability ([13]; 0.2 µM) of 0.986. The viability ([13]; 1 µM) was 0.854, the viability ([13]; 5 µM) was 0.68 and the viability ([14]; 0.008 µM) was 0.894. For the same compound, the viability ([14]; 0.04 µM) was 0.755, the viability ([14]; 0.2 µM) was 0.698 and the viability ([14]; 1 µM) was 0.56. For the same compound, the viability ([14]; 5 µM) was 0.524, the viability ([15]; 0.008 µM) was 1 and the viability ([15]; 0.04 µM) was 0.966. The viability ([15]; 0.2 µM) was 0.648, the viability ([15]; 1 µM) was 0.46 and the viability ([15]; 5 µM) was 0.215. The viability ([16]; 0.008 µM) was 0.991, the viability ([16]; 0.04 µM) was 0.732 and the viability ([16]; 0.2 µM) was 0.32. The viability ([16]; 1 µM) was 0.132, the viability ([16]; 5 µM) was 0.0874 and the viability ([17]; 0.008 µM) was 1.06. For the same compound, the viability ([17]; 0.04 µM) was 0.896, the viability ([17]; 0.2 µM) was 0.806 and the viability ([17]; 1 µM) was 0.877. For the same compound, the viability ([17]; 5 µM) was 0.834, the viability ([18]; 0.008 µM) was 0.99 and the viability ([18]; 0.04 µM) was 0.946. It also gave a viability ([18]; 0.2 µM) of 0.989, a viability ([18]; 1 µM) of 0.677 and a viability ([18]; 5 µM) of 0.258. For the same compound, the viability ([19]; 0.008 µM) was 1, the viability ([19]; 0.04 µM) was 1.05 and the viability ([19]; 0.2 µM) was 1.11. The viability ([19]; 1 µM) was 1.02, the viability ([19]; 5 µM) was 1.12 and the viability ([20]; 0.008 µM) was 1.06. It also gave a viability ([20]; 0.04 µM) of 0.843, a viability ([20]; 0.2 µM) of 0.934 and a viability ([20]; 1 µM) of 0.775. It also gave a viability ([20]; 5 µM) of 0.762.
